Like-named read-outs stand apart in the source and are kept apart here.
How the values were obtained:
[1] = tested on: 60 different human tumor cell lines; conditions: five dose; for CC50: read-out: LC50
SR = experiment: NCI 60 five dose screen
SF-295 = experiment: NCI 60 one dose screen; assay type: cell-based, human; conditions: one dose; CNS Cancer; SF-295
HCT-15 (Colon Cancer) = experiment: NCI 60 one dose screen; assay type: cell-based, human
SF-539 = experiment: NCI 60 one dose screen; assay type: cell-based, human; conditions: one dose; CNS Cancer; SF-539

For “(1S,2R,13R,14S,18S)-7-(2,4-dimethylanilino)-2,18-dimethyl-6-thia-8-azapentacyclo[11.7.0.02,10.05,9.014,18]icosa-5(9),7,10-trien-17-one [IIa.14]”, the GI50 ([1]; SK-MEL-2 (Melanoma)) was 2.19 µM, the TGI ([1]; SK-MEL-2 (Melanoma)) was 4.74E−6 and the GI50 ([1]; SK-MEL-5 (Melanoma)) was 1.86 µM. The TGI ([1]; SK-MEL-5 (Melanoma)) was 3.73E−6, the GI50 ([1]; SK-MEL-28 (Melanoma)) was 2.31 µM and the TGI ([1]; SK-MEL-28 (Melanoma)) was 6.08E−6. The GI50 ([1]; SK-OV-3 (Ovarian Cancer)) was 9.85 µM, the TGI ([1]; SK-OV-3 (Ovarian Cancer)) was >1.00E−4 and the GI50 ([1]; SN12C (Renal Cancer)) was 2.17 µM. The TGI ([1]; SN12C (Renal Cancer)) was 5.06E−6, the GI50 ([1]; SNB-19 (CNS Cancer)) was 2.12 µM and the TGI ([1]; SNB-19 (CNS Cancer)) was 5.09E−6. It also gave a GI50 ([1]; SNB-75 (CNS Cancer)) of 2.19 µM, a TGI ([1]; SNB-75 (CNS Cancer)) of 9.75E−5 and a GI50 ([1]; SW-620 (Colon Cancer)) of 2.7 µM. The GI50 ([1]; T-47D (Breast Cancer)) was 2.89 µM, the TGI ([1]; T-47D (Breast Cancer)) was >1.00E−4 and the GI50 ([1]; TK-10 (Renal Cancer)) was 2.46 µM. For the same substance, the TGI ([1]; TK-10 (Renal Cancer)) was 6.70E−6, the TGI ([1]; U251 (CNS Cancer)) was 3.21E−6 and the GI50 ([1]; UACC-62 (Melanoma)) was 1.72 µM. The TGI ([1]; UACC-62 (Melanoma)) was 3.94E−6, the GI50 ([1]; UACC-257 (Melanoma)) was 3.7 µM and the TGI ([1]; UACC-257 (Melanoma)) was >1.00E−4. For the same substance, the GI50 ([1]; UO-31 (Renal Cancer)) was 1.34 µM, the TGI ([1]; UO-31 (Renal Cancer)) was 2.86E−6 and the CC50 ([1]; 786-0 (Renal Cancer)) was 5.84 µM. For the same substance, the CC50 ([1]; A498 (Renal Cancer)) was > 100 µM, the CC50 ([1]; A549/ATCC (Non-small Cell Lung Cancer)) was > 100 µM and the CC50 ([1]; BT-549 (Breast Cancer)) was 5.8 µM. For the same substance, the CC50 ([1]; CAKI-1 (Renal Cancer)) was > 100 µM, the CC50 ([1]; CCRF-CEM (Leukemia)) was > 100 µM and the CC50 ([1]; COLO 205 (Colon Cancer)) was > 100 µM. The CC50 ([1]; DU-145 (Prostate Cancer)) was > 100 µM, the CC50 ([1]; EKVX (Non-small Cell Lung Cancer)) was > 100 µM and the CC50 ([1]; HCT-15 (Colon Cancer)) was > 100 µM. The CC50 ([1]; HCT-116 (Colon Cancer)) was 5.46 µM, the CC50 ([1]; HL-60(TB) (Leukemia)) was > 100 µM and the CC50 ([1]; HOP-62 (Non-small Cell Lung Cancer)) was > 100 µM. For the same substance, the CC50 ([1]; HOP-92 (Non-small Cell Lung Cancer)) was 8.68 µM, the CC50 ([1]; HT29 (Colon Cancer)) was > 100 µM and the CC50 ([1]; IGROV1 (Ovarian Cancer)) was > 100 µM. For the same substance, the CC50 ([1]; K-562 (Leukemia)) was > 100 µM, the CC50 ([1]; KM12 (Colon Cancer)) was ≥ 100 µM and the CC50 ([1]; LOX IMVI (Melanoma)) was 5.96 µM. For the same substance, the CC50 ([1]; MALME-3M (Melanoma)) was > 100 µM, the CC50 ([1]; MCF7 (Breast Cancer)) was > 100 µM and the CC50 ([1]; MDA-MB-231/ATCC (Breast Cancer)) was > 100 µM. For the same substance, the CC50 ([1]; MDA-MB-435 (Melanoma)) was > 100 µM, the CC50 ([1]; MDA-MB-468 (Breast Cancer)) was 8.01 µM and the CC50 ([1]; MOLT-4 (Leukemia)) was > 100 µM. The CC50 ([1]; NCI-H23 (Non-small Cell Lung Cancer)) was > 100 µM, the CC50 ([1]; NCI-H226 (Non-small Cell Lung Cancer)) was > 100 µM and the CC50 ([1]; NCI-H460 (Non-small Cell Lung Cancer)) was > 100 µM. The CC50 ([1]; NCI-H522 (Non-small Cell Lung Cancer)) was 6.43 µM, the CC50 ([1]; NCI/ADR-RES (Ovarian Cancer)) was > 100 µM and the CC50 ([1]; OVCAR-3 (Ovarian Cancer)) was 38.2 µM. For the same substance, the CC50 ([1]; OVCAR-4 (Ovarian Cancer)) was > 100 µM, the CC50 ([1]; OVCAR-5 (Ovarian Cancer)) was > 100 µM and the CC50 ([1]; OVCAR-8 (Ovarian Cancer)) was > 100 µM. For the same substance, the CC50 ([1]; RXF 393 (Renal Cancer)) was 6.01 µM, the CC50 ([1]; SF-268 (CNS Cancer)) was > 100 µM and the CC50 ([1]; SK-MEL-2 (Melanoma)) was 22.7 µM. The CC50 ([1]; SK-MEL-5 (Melanoma)) was 7.47 µM, the CC50 ([1]; SK-MEL-28 (Melanoma)) was > 100 µM and the CC50 ([1]; SK-OV-3 (Ovarian Cancer)) was > 100 µM. The CC50 ([1]; SN12C (Renal Cancer)) was > 100 µM, the CC50 ([1]; SNB-19 (CNS Cancer)) was > 100 µM and the CC50 ([1]; SNB-75 (CNS Cancer)) was > 100 µM. The CC50 ([1]; SW-620 (Colon Cancer)) was > 100 µM, the CC50 ([1]; T-47D (Breast Cancer)) was > 100 µM and the CC50 ([1]; TK-10 (Renal Cancer)) was > 100 µM. For the same substance, the CC50 ([1]; U251 (CNS Cancer)) was 6.1 µM, the CC50 ([1]; UACC-62 (Melanoma)) was 9.02 µM and the CC50 ([1]; UACC-257 (Melanoma)) was > 100 µM. The CC50 ([1]; UO-31 (Renal Cancer)) was 6.12 µM, the GI50 (SR; SR (Leukemia), five dose) was 2.32 µM and the TGI (SR; SR (Leukemia), five dose) was >1.00E−4. For the same substance, the “50% growth inhibition (GI50)” value (SR; leukemia cell line SR) was “submicromolar”, the CC50 (SR; read-out: LC50, SR (Leukemia), five dose) was > 100 µM and the “Growth Percent” value (SF-295) was 63.77%. For the same substance, the “Growth Percent” value (HCT-15 (Colon Cancer)) was 0.81% and the “Growth Percent” value (SF-539) was 8.46%.

Reference: patent publication US20250296953A1, “3,4-THIAZOLO-STEROIDS AND METHODS OF MAKING AND USING THE SAME” (Arkansas State University - Jonesboro, priority 2018, published 2025)
